How the values were obtained:
TRPV1 = test system: TRPV1; parameters: method as in PMID 30697147; conditions: read-out: agonism toward TRPV1; cited from earlier work
TRPV2 = test system: TRPV2; parameters: method as in PMID 30697147; conditions: read-out: agonism toward TRPV2; cited from earlier work
[1] = In vivo metabolism of CBC, mouse blood plasma (LC-MS/MS); parameters: species or system mice; conditions: mice, CBC 20 mg/kg IV or IP, plasma at 0.5 and 2 h
Experimental: CBC was dissolved in ethanol, and an aliquot was then mixed with Tween-80. Ethanol was removed by evaporation. The mixture was then reconstituted with PBS to a 6% final concentration of Tween-80. C 57BL/6J female mice, age 8–10 weeks, were injected with 20 mg/kg CBC or vehicle intravenously (IV, n = 3) via the tail vein or intraperitoneally (IP, n = 3). Blood samples were collected terminally by cardiac puncture into heparin-coated syringes at 0.5 and 2 h after CBC treatment and transferred into tubes. The tubes were then centrifuged, and plasma samples were removed and stored at −80 °C.
200 μL of blood plasma from each sample was taken into a glass tube, and 500 μL of extraction solvent (hexane:ethyl acetate 80:20 v/v) was added. The remaining extraction steps are similar to those used for CBC metabolite extraction from CYPs as mentioned earlier.
Samples were analyzed with the 5500 QTRAP LC/MS/MS system (Sciex, Framingham, MA) in the Metabolomics Lab of Roy J. Carver Biotechnology Center, University of Illinois at Urbana–Champaign. Software Analyst 1.7.1 was used for data acquisition and analysis. The 1200 series HPLC system (Agilent Technologies, Santa Clara, CA) includes a degasser, an autosampler, and a binary pump. The LC separation was performed on a Phenomenex Gemini C6-phenyl column (2 × 100 mm, 3 μm) with mobile phase A (0.1% formic acid in water) and mobile phase B (0.1% formic acid in acetonitrile). The flow rate was 0.2 mL/min. The linear gradient was as follows: 0–2 min, 95% A; 10 min, 50% A; 20–25 min, 0% A; 25.1–31 min, 95% A. The autosampler was set at 10 °C. The injection volume was 5 μL. Mass spectra were acquired under positive electrospray ionization (ESI) with the ion spray voltage of +5000 V. The source temperature was 400 °C. The curtain gas, ion source gas 1, and ion source gas 2 were 325, 65, and 55 psi, respectively. Multiple reaction monitoring (MRM) was used for quantitation: CBC m/z 315.1 → m/z 135.0; 1-acetoxy-6′,7′-dihydroxy-CBC (JM-I-73) m/z 349.1→ m/z 193.0; 1″-hydroxy-CBC (JM-I-66) m/z 331.1→ m/z 275.1; 6′,7′-epoxy-CBC (JM-I-27) m/z 331.1→ m/z 193.0; 7′,10′-ene-6′-hydroxy-CBC (JM-I-30) m/z 331.1→ m/z 193.0; 8′-hydroxy-CBC (JM-I-32) […]→ m/z 77.0. Internal standard EET-EA-d11 was monitored at m/z 375.2→ m/z 357.1.

[2] = test system: BV2 microglial cells, stimulated with lipopolysaccharide (LPS); experiment: Arginase 1 ELISA in LPS-stimulated BV2 cells; assay type: cell-based, mouse; conditions: 0.1, 1.0, 2.5, 5.0 μM
Experimental: (§1) BV2 cells were a gift from Dr. Bob McCusker, University of Illinois. They were cultured and maintained at 37 °C in a humidified atmosphere of 95% air and 5% CO2 in high-glucose Dulbecco’s modified Eagle’s (DMEM) medium (Cat No. 10-013-CV, Corning Life Sciences), supplemented with 5% heat-inactivated fetal bovine serum (FBS), streptomycin (100 μg/mL), and penicillin (100 units/mL). Stocks of all the minor cannabinoids were made in ethanol and stored at −80 °C and diluted as required before cell treatment. A final concentration of ethanol was maintained at 0.1% in the cell culture experiments.
BV-2 cells were plated at a density of 50 000 cells/well in a 24-well plate at 37 °C under controlled conditions. Cells were pretreated with the minor cannabinoids at various concentrations (0.1, 1.0, 2.5, 5.0 μM) for 4 h and then stimulated with LPS for 24 h. The culture medium was removed and saved for the determination of nitric oxide production through Cayman’s Griess assay. IL-6, TNFα, and Arginase 1 production was also determined utilizing collected medium. […] The absorbance was measured at 540 nm using a plate reader (SpectraMax iD5). The quantification was done using a calibration curve that was generated using the sodium nitrite standard obtained from Cayman Chemicals. […]

CYP3A4 = CYP3A4 (Homo sapiens, UniProt P08684); experiment: CBC metabolism by CYP3A4; assay type: in vitro ADME; parameters: His-tag; made in house; host or cells: E. coli DH-5α with pTGro7 plasmid (CYP)
Experimental: (§2) To study the kinetics of CBC metabolism, concentration dependent metabolism of CBC was carried out in the presence of various CYPs using the following procedure. CYP2J2, CYP2C8, CYP2D6, CYP2C9, and CYP3A4 (final concentration 0.5 μM) were initially dissolved in lipid containing POPC:POPS (8:2 v/v) followed by addition of CPR (final concentration 0.6 μM) in 0.1 M potassium phosphate buffer (pH 7.4). CBC (5–80 μM) was added and incubated at 37 °C for 10 min. The reaction was triggered by NADPH and extracted using the exact sample protocol as mentioned in the HLM section.
(§3) Samples were analyzed with the 5500 QTRAP LC/MS/MS system (Sciex, Framingham, MA) in the Metabolomics Lab of Roy J. Carver Biotechnology Center, University of Illinois at Urbana–Champaign. Software Analyst 1.7.1 was used for data acquisition and analysis. The 1200 series HPLC system (Agilent Technologies, Santa Clara, CA) includes a degasser, an autosampler, and a binary pump. […] Multiple reaction monitoring (MRM) was used for quantitation: CBC m/z 315.1 → m/z 135.0; 1-acetoxy-6′,7′-dihydroxy-CBC (JM-I-73) m/z 349.1→ m/z 193.0; 1″-hydroxy-CBC (JM-I-66) m/z 331.1→ m/z 275.1; 6′,7′-epoxy-CBC (JM-I-27) m/z 331.1→ m/z 193.0; 7′,10′-ene-6′-hydroxy-CBC (JM-I-30) m/z 331.1→ m/z 193.0; 8′-hydroxy-CBC (JM-I-32) […]→ m/z 77.0. Internal standard EET-EA-d11 was monitored at m/z 375.2→ m/z 357.1.

[3] = test system: BV2 microglial cells, stimulated with lipopolysaccharide (LPS); experiment: IL-6 ELISA in LPS-stimulated BV2 cells; assay type: cell-based, mouse; conditions: for effect on IL-6 levels: 0.1, 1.0, 2.5, 5.0 μM, LPS-stimulated
Experimental: as §1
(§4) BV-2 cells were plated at a density of 50 000 cells/well in a 24-well plate at 37 °C under controlled conditions. Cells were pretreated with the minor cannabinoids at various concentrations (0.1, 1.0, 2.5, 5.0 μM) for 4 h and then stimulated with LPS for 24 h. The culture medium was removed and saved for the determination of nitric oxide production through Cayman’s Griess assay. IL-6, TNFα, and Arginase 1 production was also determined utilizing collected medium. For the Greiss assay, in a 96-well plate, 100 μL of culture medium was used, and 50 μL of both Greiss reagent-1 and Greiss reagent-2 was added and incubated for 10 min. The absorbance was measured at 540 nm using a plate reader (SpectraMax iD5). The quantification was done using a calibration curve that was generated using the sodium nitrite standard obtained from Cayman Chemicals.
(§5) BV-2 cells were pretreated with the minor cannabinoids as described previously for 4 h in serum media (reduced to 5% FBS). Cells were stimulated with LPS (25 ng/mL in growth media) and allowed to incubate for 24 h. The culture medium was collected, and the concentrations of IL-6 (Cayman Chemicals), TNFα (ThermoFisher Scientific), and arginase 1 (ThermoFisher Scientific) cytokine expression were determined using specific monoclonal antibodies by ELISA kits as per manufacturer’s instructions.

[4] = test system: BV2 microglial cells, stimulated with lipopolysaccharide (LPS); experiment: TNFα ELISA in LPS-stimulated BV2 cells; assay type: cell-based, mouse; conditions: 0.1, 1.0, 2.5, 5.0 μM
Experimental: as §1, §4, §5

CYP2D6 = CYP2D6 (Homo sapiens, UniProt P10635); experiment: CBC metabolism by CYP2D6; assay type: in vitro ADME; parameters: His-tag; made in house; host or cells: E. coli DH-5α with pTGro7 plasmid (CYP)
Experimental: as §2, §3

[5] = test system: BV2 microglial cells, stimulated with lipopolysaccharide (LPS); experiment: Nitric oxide determination (Griess assay) in LPS-stimulated BV2 cells; assay type: cell-based, mouse; conditions: for effect on NO release/production: 0.1, 1.0, 2.5, 5.0 μM, vs cells treated with LPS only
Experimental: as §1
First, cell viability of BV2 cells was assessed after treatment with cannabinoids, at various concentrations (0.1, 1.0, 2.5, 5.0 μM), utilizing Cayman’s MTT assay. […] Once viability was determined, we measured the production of pro-inflammatory markers such as nitric oxide (NO), interleukin 6 (IL-6), tumor necrosis factor alpha (TNFα), and arginase 1 (Arg1) after BV2 cells were treated with minor cannabinoids and then stimulated with lipopolysaccharide (LPS) to evoke an inflammatory response.
as §4

[6] = test system: recombinant CYPs: CYP2J2, CYP2C8, CYP2C9, CYP2D6, and CYP3A4; experiment: CBC metabolism by recombinant CYPs (all five); assay type: in vitro ADME, human; conditions: lipid-constituted system with CPR, NADPH
Experimental: as §2, §3

CYP3A4, sequence (P08684 whole entry): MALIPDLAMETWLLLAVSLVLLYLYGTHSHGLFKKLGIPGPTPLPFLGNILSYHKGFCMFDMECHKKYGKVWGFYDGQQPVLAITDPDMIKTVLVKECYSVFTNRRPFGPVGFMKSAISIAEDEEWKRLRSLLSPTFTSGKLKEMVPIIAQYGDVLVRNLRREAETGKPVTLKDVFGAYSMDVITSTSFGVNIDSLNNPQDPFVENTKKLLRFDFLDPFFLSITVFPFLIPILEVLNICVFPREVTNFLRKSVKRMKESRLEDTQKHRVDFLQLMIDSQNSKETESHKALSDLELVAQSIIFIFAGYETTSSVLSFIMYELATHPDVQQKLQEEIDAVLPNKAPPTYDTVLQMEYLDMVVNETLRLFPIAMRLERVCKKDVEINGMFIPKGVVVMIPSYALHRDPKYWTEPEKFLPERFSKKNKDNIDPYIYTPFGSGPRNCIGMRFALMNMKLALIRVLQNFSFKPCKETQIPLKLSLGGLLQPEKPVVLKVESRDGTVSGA
CYP3A4, sequence (P16435 whole entry partner): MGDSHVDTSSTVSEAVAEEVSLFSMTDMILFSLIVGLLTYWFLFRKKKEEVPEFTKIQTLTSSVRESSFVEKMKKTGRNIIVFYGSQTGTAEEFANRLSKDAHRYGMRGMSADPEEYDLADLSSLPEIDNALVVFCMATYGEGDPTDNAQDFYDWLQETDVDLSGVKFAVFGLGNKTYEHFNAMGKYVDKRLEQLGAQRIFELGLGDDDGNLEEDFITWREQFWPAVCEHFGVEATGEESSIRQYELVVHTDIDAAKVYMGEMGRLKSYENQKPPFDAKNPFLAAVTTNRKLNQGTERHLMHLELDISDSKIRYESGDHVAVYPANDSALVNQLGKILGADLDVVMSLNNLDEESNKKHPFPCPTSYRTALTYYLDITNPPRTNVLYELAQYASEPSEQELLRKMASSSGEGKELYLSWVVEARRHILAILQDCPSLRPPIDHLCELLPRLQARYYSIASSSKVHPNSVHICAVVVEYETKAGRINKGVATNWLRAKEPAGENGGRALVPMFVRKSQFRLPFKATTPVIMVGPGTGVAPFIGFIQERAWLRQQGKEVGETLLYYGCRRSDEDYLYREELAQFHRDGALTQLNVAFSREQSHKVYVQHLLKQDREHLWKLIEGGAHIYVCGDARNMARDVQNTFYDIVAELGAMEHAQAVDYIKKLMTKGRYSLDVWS
CYP2D6, sequence (P10635 whole entry): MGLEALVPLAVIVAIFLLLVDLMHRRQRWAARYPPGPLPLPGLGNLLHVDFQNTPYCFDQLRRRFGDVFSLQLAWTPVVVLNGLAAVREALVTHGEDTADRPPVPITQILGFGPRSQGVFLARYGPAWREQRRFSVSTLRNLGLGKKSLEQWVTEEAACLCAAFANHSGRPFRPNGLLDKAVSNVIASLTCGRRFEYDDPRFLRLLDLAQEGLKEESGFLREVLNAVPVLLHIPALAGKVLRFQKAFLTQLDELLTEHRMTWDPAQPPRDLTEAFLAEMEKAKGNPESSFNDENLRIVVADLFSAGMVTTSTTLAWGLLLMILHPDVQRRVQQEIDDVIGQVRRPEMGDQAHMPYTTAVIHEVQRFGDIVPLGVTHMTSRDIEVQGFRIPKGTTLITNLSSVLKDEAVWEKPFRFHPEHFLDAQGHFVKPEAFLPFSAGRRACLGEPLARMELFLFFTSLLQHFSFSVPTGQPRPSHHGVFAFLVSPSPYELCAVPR
CYP2D6, sequence (P16435 whole entry partner): as the sequence (P16435 whole entry partner) above

SMILES | EC50 (TRPV1) [µM] | EC50 (TRPV2) [µM] | detection as product of CBC metabolism in mouse plasma [1] | effect on Arg-1 production [2] | formation as CBC metabolite (CYP3A4) | effect on IL-6 levels [3] | effect on TNFα production [4] | effect on NO release/production [5] | also measured
CCCCCc1cc(O)c(C/C=C(\C)CCC=C(C)C)c(O)c1 [CBG, cannabigerol] | ~33 | ~73 | – | – | – | – | – | – | –
C=C(C)[C@@H]1CCC(C)=C[C@H]1c1c(O)cc(CCCCC)cc1O [CBD, cannabidiol] | ~40 | ~40 | – | – | – | – | – | – | –
CCCCCc1cc(O)c2c(c1)OC(C)(CCC1OC1(C)C)C=C2 (centres unmarked) [6′,7′-epoxy-CBC] | – | – | detected | increases in a concentration dependent manner | exclusively produces | – | – | – | –
CCCCC(O)c1cc(O)c2c(c1)OC(C)(CCC=C(C)C)C=C2 (centres unmarked) [1″-hydroxy-CBC] | – | – | not detected | increases in a concentration dependent manner | not detected | Concentration dependent reduction | Concentration dependent reduction | – | detection as CBC metabolite (CYP2D6): not detected
CCCCCc1cc(O)c2c(c1)OC(C)(CCC(O)C(C)(C)O)C=C2 (centres unmarked) [6′,7′-dihydroxy-CBC] | – | – | detected | – | – | Concentration dependent reduction | Concentration dependent reduction | concentration-dependent reduction | reduction of NO level ([5]; 5 μM, LPS-stimulated BV2 cells): ~50%; reduction of IL-6 level ([3]; 5 μM, LPS-stimulated BV2 cells): ~50%; detection as CBC metabolite in the presence of recombinant CYPs [6]: not detected
C=C(C)C(O)CCC1(C)C=Cc2c(O)cc(CCCCC)cc2O1 (centres unmarked) [7′,10′-ene-6′-hydroxy-CBC] | – | – | – | – | – | Concentration dependent reduction | Concentration dependent reduction | concentration-dependent reduction | –

— paper PMC11061835, “Elucidating the Mechanism of Metabolism of Cannabichromene by Human Cytochrome P450s” (Journal of Natural Products, 2024)
